Experimental data taken from patent publication US20200131129A1, “FARNESOID X RECEPTOR AGONISTS AND USES THEREOF” (Metacrine, Inc., priority 2017, published 2020).
pEC50: −log10 of the molar value.

These compounds were tested against T1, hFXR (Homo sapiens, UniProt Q96RI1) (assay: In Vitro FXR Assay (TK): hFXR/hRXR TK-ECRE-luc reporter in transfected CV-1 cells). Conditions: CV-1 cells transfected with hFXR, hRXR, 18 hrs incubation, luminescence, maximum efficacy <25% of Fexarmine control also classified as ‘+’.
T1 construct: expressed in transfected cells; host or cells: CV-1 cells
T1 sequence (Q96RI1 1-486): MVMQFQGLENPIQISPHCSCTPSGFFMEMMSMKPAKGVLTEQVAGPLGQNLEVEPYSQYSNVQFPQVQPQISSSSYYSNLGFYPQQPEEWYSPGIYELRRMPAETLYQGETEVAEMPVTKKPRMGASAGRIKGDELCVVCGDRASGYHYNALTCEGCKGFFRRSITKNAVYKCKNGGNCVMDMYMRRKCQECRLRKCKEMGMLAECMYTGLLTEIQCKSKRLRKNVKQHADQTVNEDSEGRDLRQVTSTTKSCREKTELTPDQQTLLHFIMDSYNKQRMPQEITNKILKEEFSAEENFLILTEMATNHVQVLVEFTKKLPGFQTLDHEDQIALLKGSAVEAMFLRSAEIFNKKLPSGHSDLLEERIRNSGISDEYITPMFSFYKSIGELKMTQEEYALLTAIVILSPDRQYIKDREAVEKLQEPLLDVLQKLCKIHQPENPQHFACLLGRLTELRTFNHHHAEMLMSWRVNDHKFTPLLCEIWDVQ
T1 sequence (P19793 1-462 partner): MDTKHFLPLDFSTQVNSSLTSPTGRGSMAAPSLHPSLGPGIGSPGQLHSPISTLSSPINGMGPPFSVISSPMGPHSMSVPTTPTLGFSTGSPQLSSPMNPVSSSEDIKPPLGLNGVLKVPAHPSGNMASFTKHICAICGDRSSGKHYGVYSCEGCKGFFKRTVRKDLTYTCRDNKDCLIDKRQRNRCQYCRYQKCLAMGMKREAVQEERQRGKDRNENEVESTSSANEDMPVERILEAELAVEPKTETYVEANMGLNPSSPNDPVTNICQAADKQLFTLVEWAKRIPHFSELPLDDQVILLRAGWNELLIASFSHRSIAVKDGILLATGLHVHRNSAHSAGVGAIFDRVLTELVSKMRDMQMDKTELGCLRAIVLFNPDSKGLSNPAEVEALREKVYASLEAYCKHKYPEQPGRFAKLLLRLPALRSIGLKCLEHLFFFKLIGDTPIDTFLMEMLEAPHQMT
Assay type: cell-based
Protocol: Example B-1: In Vitro FXR Assay (TK)
CV-1 cells were seeded at a density of 2,000,000 cells in a T175 flask with DMEM+10% charcoal double-stripped FBS and incubated at 37° C. in 5% CO2 for 18 h (O/N).
After 18 h of incubation, the medium in the T175 flask was changed with fresh DMEM+10% charcoal super-stripped serum. In a polypropylene tube, 2500 μL OptiMEM (Life Technologies, Cat #31985-062) was combined with expression plasmids for hFXR, hRXR, TK-ECRE-luc and pCMX-YFP. The tube was then briefly vortexed and incubated at room temperature for 5 minutes. Transfection reagent (X-tremeGENE HP from Roche, Cat #06 366 236 001) was added to the OptiMEM/plasmid mixture vortexed and incubated at room temperature for 20 minutes. Following incubation, the transfection reagent/DNA mixture complex was added to cells in the T175 flask and the cells were incubated at 37° C. in 5% CO2 for 18 h (0/N).
Compounds were serially diluted in DMSO and added to transfected CV-1 cells. The cells were then incubated for 18 hrs. The next day cells were lysed and examined for luminescence.

pEC50 | Compound
≥ 6.30 | COc1ccc([C@H]2CC[C@H](CN(c3cc(-c4coc(C5CC5)n4)ccn3)C(=O)[C@H]3CC[C@H](O)CC3)CC2)nc1C#N [Compound 10.19, trans-N-((trans-4-(6-Cyano-5-methoxypyridin-2-yl)cyclohexyl)methyl)-N-(4-(2-cyclopropyloxazol-4-yl)pyridine-2-yl)-4-hydroxycyclohexanecarboxamide]
≤ 6.00 | COc1ccc([C@H]2CC[C@H](CN(c3cccc(-c4nnc(C)o4)c3)C(=O)[C@H]3CC[C@H](O)CC3)CC2)cc1C [Compound 6, trans-4-Hydroxy-N-((trans-4-(4-methoxy-3-methylphenyl)cyclohexyl)methyl)-N-(3-(5-methyl-1,3,4-oxadiazol-2-yl)phenyl)cyclohexanecarboxamide]
≥ 6.30 | COc1ccc([C@H]2CC[C@H](CN(c3cccc(-c4coc(C5CC5)n4)c3)C(=O)[C@H]3CC[C@H](O)CC3)CC2)cc1C#N [Compound 10.11, trans-N-((trans-4-(3-Cyano-4-methoxyphenyl)cyclohexyl)methyl)-N-(3-(2-cyclopropyloxazol-4-yl)phenyl)-4-hydroxycyclohexanecarboxamide]
≥ 6.30 | COc1ccc([C@H]2CC[C@H](CN(c3cccc(-c4cnc(N(C)C)nc4)c3)C(=O)[C@H]3CC[C@H](O)CC3)CC2)cc1C [Compound 1.09, trans-N-(3-(2-(Dimethylamino)pyrimidin-5-yl)phenyl)-4-hydroxy-N-((trans-4-(4-methoxy-3-methylphenyl)cyclohexyl)methyl)cyclohexanecarboxamide]
6.00 to 6.30 | COc1cnc([C@H]2CC[C@H](CN(c3cccc(-c4coc(C5CC5)n4)c3)C(=O)[C@H]3CC[C@H](O)CC3)CC2)cc1C [Compound 10.16, trans-N-(3-(2-Cyclopropyloxazol-4-yl)phenyl)-4-hydroxy-N-((trans-4-(5-methoxy-4-methylpyridin-2-yl)cyclohexyl)methyl) cyclohexanecarboxamide]
≤ 6.00 | COc1ccc([C@H]2CC[C@H](CN(c3cccc(-n4ncc(C)n4)c3)C(=O)[C@H]3CC[C@H](O)CC3)CC2)cc1C [Compound 9.10, trans-4-Hydroxy-N-((trans-4-(4-methoxy-3-methylphenyl)cyclohexyl)methyl)-N-(3-(4-methyl-2H-1,2,3-triazol-2-yl)phenyl)cyclohexanecarboxamide]
≥ 6.30 | COc1ccc([C@H]2CC[C@H](CN(c3cccc(-c4cnc(C5CC5)o4)c3)C(=O)[C@H]3CC[C@H](O)CC3)CC2)cc1C [Compound 9.12, trans-N-(3-(2-Cyclopropyloxazol-5-yl)phenyl)-4-hydroxy-N-((trans-4-(4-methoxy-3-methylphenyl)cyclohexyl)methyl) cyclohexanecarboxamide]
≤ 6.00 | COc1ccc([C@H]2CC[C@@H](CN(c3cccc(-c4coc(C5CC5)n4)c3)C(=O)[C@H]3CC[C@H](O)CC3)CC2)nc1C [Compound 10.10, trans-N-(3-(2-Cyclopropyloxazol-4-yl)phenyl)-4-hydroxy-N-((cis-4-(5-methoxy-6-methylpyridin-2-yl)cyclohexyl)methyl) cyclohexanecarboxamide]
≥ 6.30 | COc1ccc([C@H]2CC[C@H](CN(c3cccc(-c4cc(C5CC5)ns4)c3)C(=O)[C@H]3CC[C@H](O)CC3)CC2)cc1C [Compound 9, trans-N-(3-(3-Cyclopropylisothiazol-5-yl)phenyl)-4-hydroxy-N-((trans-4-(4-methoxy-3-methylphenyl)cyclohexyl)methyl)cyclohexanecarboxamide]
≥ 6.30 | COc1ccc([C@H]2CC[C@H](CN(c3cccc(C#Cc4cnn(C)n4)c3)C(=O)[C@H]3CC[C@H](O)CC3)CC2)cc1C [Compound 12.01, trans-4-Hydroxy-N-((trans-4-(4-methoxy-3-methylphenyl)cyclohexyl)methyl)-N-(3-((2-methyl-2H-1,2,3-triazol-4-yl)ethynyl)phenyl)cyclohexanecarboxamide]
≥ 6.30 | COc1ccc([C@H]2CC[C@H](CN(c3cc(-c4coc(C5CC5)n4)ccn3)C(=O)[C@H]3CC[C@H](O)CC3)CC2)cc1C [Compound 10.07, trans-N-(4-(2-Cyclopropyloxazol-4-yl)pyridine-2-yl)-4-hydroxy-N-((trans-4-(4-methoxy-3-methylphenyl)cyclohexyl)methyl) cyclohexanecarboxamide]
≥ 6.30 | COc1ccc([C@H]2CC[C@H](CN(c3cc(-c4ccc(N(C)C)nc4)ccn3)C(=O)[C@H]3CC[C@H](O)CC3)CC2)cc1C [Compound 1.11, trans-N-(6-(Dimethylamino)-[3,4′-bipyridin]-2′-yl)-4-hydroxy-N-((trans-4-(4-methoxy-3-methylphenyl)cyclohexyl)methyl)cyclohexanecarboxamide]
≥ 6.30 | COc1ccc([C@H]2CC[C@H](CN(c3cccc(C#Cc4nnc[nH]4)c3)C(=O)[C@H]3CC[C@H](O)CC3)CC2)cc1C [Compound 14, trans-N-(3-((1H-1,2,4-Triazol-3-yl)ethynyl)phenyl)-4-hydroxy-N-((trans-4-(4-methoxy-3-methylphenyl)cyclohexyl)methyl)cyclohexanecarboxamide]
6.00 to 6.30 | COc1ccc(-c2cccc(N(C[C@H]3CC[C@H](c4ccc(OC)c(C)c4)CC3)C(=O)[C@H]3CC[C@H](O)CC3)c2)cc1C [Compound 1.08, trans-4-Hydroxy-N-(4′-methoxy-3′-methyl-[1,1′-biphenyl]-3-yl)-N-((trans-4-(4-methoxy-3-methylphenyl)cyclohexyl)methyl)cyclohexanecarboxamide]
6.00 to 6.30 | COc1ccc([C@H]2CC[C@H](CN(c3cccc(-c4nsc(C5CC5)n4)c3)C(=O)[C@H]3CC[C@H](O)CC3)CC2)cc1C [Compound 2.12, trans-N-(3-(5-Cyclopropyl-1,2,4-thiadiazol-3-yl)phenyl)-4-hydroxy-N-((trans-4-(4-methoxy-3-methylphenyl)cyclohexyl)methyl)cyclohexanecarboxamide]
≥ 6.30 | CCc1cc(-c2cccc(N(C[C@H]3CC[C@H](c4ccc(OC)c(C)c4)CC3)C(=O)[C@H]3CC[C@H](O)CC3)c2)ns1 [Compound 9.06, trans-N-(3-(5-Ethylisothiazol-3-yl)phenyl)-4-hydroxy-N-((trans-4-(4-methoxy-3-methylphenyl)cyclohexyl)methyl) cyclohexanecarboxamide]
≥ 6.30 | COc1ncc([C@H]2CC[C@H](CN(c3cc(-c4coc(C5CC5)n4)ccn3)C(=O)[C@H]3CC[C@H](O)CC3)CC2)cc1C [Compound 10.23, trans-N-(4-(2-Cyclopropyloxazol-4-yl)pyridin-2-yl)-4-hydroxy-N-((trans-4-(6-methoxy-5-methylpyridin-3-yl)cyclohexyl)methyl) cyclohexanecarboxamide]
≥ 6.30 | COc1ccc([C@H]2CC[C@H](CN(c3cccc(-c4cc(C)ns4)c3)C(=O)[C@H]3CC[C@H](O)CC3)CC2)cc1C [Compound 2.06, trans-4-Hydroxy-N-((trans-4-(4-methoxy-3-methylphenyl)cyclohexyl)methyl)-N-(3-(3-methylisothiazol-5-yl)phenyl)cyclohexanecarboxamide]
≥ 6.30 | CCc1nc(-c2ccnc(N(C[C@H]3CC[C@H](c4ccc(OC)c(C)n4)CC3)C(=O)[C@H]3CC[C@H](O)CC3)c2)co1 [Compound 10.22, trans-N-(4-(2-Ethyloxazol-4-yl)pyridin-2-yl)-4-hydroxy-N-((trans-4-(5-methoxy-6-methylpyridin-2-yl)cyclohexyl)methyl) cyclohexanecarboxamide]
≥ 6.30 | COc1ncc([C@H]2CC[C@H](CN(c3cc(-c4coc(C5CC5)n4)ccn3)C(=O)[C@H]3CC[C@H](O)CC3)CC2)cc1Cl [Compound 10.24, trans-N-((trans-4-(5-Chloro-6-methoxypyridin-3-yl)cyclohexyl)methyl)-N-(4-(2-cyclopropyloxazol-4-yl)pyridin-2-yl)-4-hydroxycyclohexanecarboxamide]
